Legend:
Test in all cases: relative viability (nuclei count vs DMSO), 5 days (fraction); higher = more cells survive
[1] = compound: Cn1nnc2c(C(N)=O)ncn2c1=O [Temozolomide] + COc1cccc2cc(-c3nc([C@H]4CC[C@H](C(=O)O)CC4)n4ncnc(N)c34)[nH]c12 [OSI-027] (partner 0.5 µM)
Outline: (§1)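 Dosing by pin tool came one day after lung cancer cell lines were seeded in 1536-well plates, using either one drug or a fixed anchor-drug dose plus five library-drug doses (not always all listed) in √10 steps. After 5 days, nuclei were counted on 4× images. Relative viability is treated-well nuclei count divided by vehicle-well nuclei count, and values are medians of duplicate plates.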

[2] = compound: C[C@@H](C(=O)N[C@@H](C1CCCCC1)C(=O)N2CCC[C@H]2C(=O)N[C@@H]3[C@@H](CC4=CC=CC=C34)OCC#CC#CCO[C@@H]5CC6=CC=CC=C6[C@@H]5NC(=O)[C@@H]7CCCN7C(=O)[C@H](C8CCCCC8)NC(=O)[C@H](C)NC)NC [AZD5582] + Nc1nc2[nH]cc(CCc3ccc(C(=O)N[C@@H](CCC(=O)O)C(=O)O)cc3)c2c(=O)[nH]1 [Pemetrexed] (partner 0.2 µM)
Outline: as §1

[3] = compound: Cn1nnc2c(C(N)=O)ncn2c1=O [Temozolomide] + Nc1ncn([C@H]2C[C@H](O)[C@@H](CO)O2)c(=O)n1 [Decitabine] (partner 2 µM)
Outline: as §1

[4] = compound: Cn1nnc2c(C(N)=O)ncn2c1=O [Temozolomide] + O=C(c1cc(Cc2n[nH]c(=O)c3ccccc23)ccc1F)N1CCN(C(=O)C2CC2)CC1 [Olaparib] (partner 8 µM)
Outline: as §1

Cell Line	relative viability ([1]; first compound 0.2 µM)	relative viability ([1]; first compound 0.6325 µM)	relative viability ([1]; first compound 2 µM)	relative viability ([1]; first compound 6.325 µM)	relative viability ([1]; first compound 20 µM)	relative viability ([2]; first compound 0.001581 µM)	relative viability ([2]; first compound 0.005 µM)	relative viability ([2]; first compound 0.01581 µM)	relative viability ([2]; first compound 0.05 µM)	relative viability ([3]; first compound 0.2 µM)	relative viability ([3]; first compound 0.6325 µM)	relative viability ([3]; first compound 2 µM)	relative viability ([3]; first compound 6.325 µM)	relative viability ([3]; first compound 20 µM)	relative viability ([4]; first compound 0.2 µM)	relative viability ([4]; first compound 0.6325 µM)	relative viability ([4]; first compound 2 µM)	relative viability ([4]; first compound 6.325 µM)	relative viability ([4]; first compound 20 µM)
NCI-H460	0.853	0.688	0.761	0.682	0.656	0.0644	0.0659	0.0592	0.059	0.523	0.481	0.479	0.439	0.463	0.488	0.47	0.366	0.317	0.214
NCI-H520	0.211	0.298	0.255	0.271	0.239	0.66	0.755	0.699	0.691	0.54	0.467	0.484	0.517	0.548	0.391	0.33	0.312	0.284	0.242
NCI-H522	0.723	0.729	0.778	0.665	0.648	0.989	1.13	0.976	0.823	0.591	0.623	0.747	0.608	0.59	0.64	0.543	0.762	0.574	0.469
NCI-H596	0.835	0.76	0.692	0.691	0.835	0.323	–	0.448	0.263	1.13	1.07	1.03	1.02	0.905	0.685	0.694	0.764	0.677	0.657
NCI-H647	0.676	0.661	0.776	0.431	0.185	0.126	0.14	0.193	0.124	0.339	0.429	0.337	0.283	0.293	0.721	0.616	0.5	0.176	0.0916
NCI-H650	0.562	0.535	0.584	0.506	0.534	0.843	0.959	0.605	0.644	0.355	0.319	0.348	0.303	0.339	0.387	0.39	0.358	0.274	0.202
NCI-H661	0.534	0.759	0.737	0.716	0.55	0.915	0.899	0.98	0.904	0.527	0.598	0.632	0.495	0.545	0.744	0.735	0.731	0.634	0.551
NCI-H838	0.426	0.485	0.397	0.419	0.411	0.258	0.246	0.235	0.262	0.493	0.495	0.462	0.439	0.475	0.785	0.776	0.818	0.719	0.687
NCI-H1355	0.349	0.421	0.455	0.382	0.352	0.942	1	0.986	0.815	0.37	0.4	0.362	0.336	0.34	0.743	0.753	0.723	0.646	0.617
NCI-H1395	0.629	0.604	0.686	0.513	0.659	0.852	0.964	–	1.13	0.707	0.716	0.849	0.657	0.717	0.439	0.441	0.51	0.354	0.385
NCI-H1437	0.863	0.877	0.952	0.922	0.906	0.337	0.294	0.263	0.326	0.604	0.54	0.586	0.61	0.572	0.614	0.606	0.632	0.583	0.523
NCI-H1648	–	0.23	0.262	0.235	0.274	0.654	0.738	–	0.708	–	0.469	0.459	0.336	0.37	–	1.09	0.654	0.826	0.468
NCI-H1650	0.638	0.788	0.651	0.596	0.409	0.385	0.396	0.362	0.412	0.45	0.422	0.515	0.457	0.532	0.854	0.795	0.776	0.672	0.703
NCI-H1651	0.724	0.727	0.657	0.636	0.636	0.507	0.562	0.52	0.638	0.599	0.614	0.656	0.594	0.62	0.187	0.177	0.173	0.145	0.0979
NCI-H1666	0.81	0.822	0.789	0.65	0.672	0.788	0.879	0.794	0.71	0.706	0.776	0.761	0.686	0.682	0.731	0.729	0.771	0.639	0.604
NCI-H1734	0.685	0.562	0.667	0.578	0.649	0.406	0.407	0.415	0.437	0.535	0.536	0.56	0.522	0.452	0.708	0.586	0.577	0.614	0.373
NCI-H1755	0.76	0.758	0.743	0.673	0.637	0.399	0.375	0.387	0.414	0.749	0.732	0.676	0.63	0.573	0.905	0.85	0.926	0.829	0.568

Cell Line	relative viability ([1]; first compound 0.2 µM)	relative viability ([1]; first compound 0.6325 µM)	relative viability ([1]; first compound 2 µM)	relative viability ([1]; first compound 6.325 µM)	relative viability ([1]; first compound 20 µM)	relative viability ([2]; first compound 0.001581 µM)	relative viability ([2]; first compound 0.005 µM)	relative viability ([2]; first compound 0.01581 µM)	relative viability ([2]; first compound 0.05 µM)	relative viability ([3]; first compound 0.2 µM)	relative viability ([3]; first compound 0.6325 µM)	relative viability ([3]; first compound 2 µM)	relative viability ([3]; first compound 6.325 µM)	relative viability ([3]; first compound 20 µM)	relative viability ([4]; first compound 0.2 µM)	relative viability ([4]; first compound 0.6325 µM)	relative viability ([4]; first compound 2 µM)	relative viability ([4]; first compound 6.325 µM)	relative viability ([4]; first compound 20 µM)
NCI-H1792	0.552	0.739	0.689	0.681	0.736	0.71	0.881	0.557	1.05	0.434	0.599	0.407	0.549	0.54	0.31	0.388	0.251	0.361	0.31
NCI-H1793	–	0.279	0.27	0.245	0.232	0.787	1.21	0.624	1.07	–	0.54	0.624	0.36	0.424	–	0.943	1.07	0.685	0.506
NCI-H1915	0.693	0.614	0.602	0.388	0.326	0.437	0.428	0.506	0.497	0.246	0.266	0.277	0.268	0.223	0.272	0.234	0.238	0.212	0.151
NCI-H1944	0.428	0.378	0.474	0.377	0.382	0.455	0.556	0.521	0.62	0.398	0.389	0.439	0.368	0.399	0.428	0.38	0.377	0.315	0.27
NCI-H1975	0.888	0.683	0.852	0.731	0.804	0.266	0.248	0.291	0.235	0.401	0.42	0.399	0.372	0.355	0.779	0.77	0.798	0.744	0.699
NCI-H1993	0.522	0.556	0.536	0.535	0.621	0.495	0.527	0.561	0.679	0.535	0.69	0.607	0.654	0.513	0.913	1.34	1.2	0.94	0.836
NCI-H2009	0.82	0.597	0.682	0.699	0.698	1	1.01	1.03	1.08	0.353	0.404	0.417	0.355	0.397	0.723	0.671	0.717	0.641	0.499
NCI-H2023	0.375	0.39	0.475	0.329	0.413	0.198	0.216	0.26	0.183	0.279	0.227	0.225	0.211	0.201	0.539	0.444	0.463	0.373	0.26
NCI-H2085	0.537	0.886	1.05	0.734	0.577	0.999	1.07	0.482	0.848	0.63	0.599	0.587	0.589	0.471	0.773	0.765	0.797	0.677	0.491
NCI-H2087	0.628	0.565	0.634	0.464	0.612	0.656	0.665	0.662	0.656	0.306	0.314	0.322	0.281	0.299	0.698	0.723	0.698	0.502	0.378
NCI-H2126	0.686	0.781	0.85	1.12	0.717	0.626	0.689	0.55	0.472	0.554	0.611	0.596	0.639	0.589	0.875	0.903	0.852	0.921	0.831
NCI-H2170	–	0.825	0.875	0.575	0.34	0.26	0.249	0.268	0.269	–	0.511	0.45	0.383	0.268	–	0.514	0.466	0.245	0.137
NCI-H2342	0.544	0.665	0.618	0.59	0.678	0.79	0.747	0.756	0.791	0.737	0.771	0.666	0.676	0.803	0.344	0.411	0.454	0.386	0.36
NCI-H2347	0.338	0.428	0.501	0.376	0.432	0.369	0.441	0.41	0.402	0.613	0.645	0.669	0.595	0.604	0.59	0.538	0.614	0.603	0.472
NCI-H2405	0.569	0.618	0.646	0.619	0.654	1.05	1.13	1.09	1.12	0.773	0.779	0.863	0.699	0.673	0.896	0.831	0.998	0.832	0.492
NCI-H3122	0.404	0.995	1.33	0.949	1.03	0.165	0.152	0.197	0.116	0.438	0.484	0.611	0.478	0.378	0.631	0.533	0.654	0.51	0.334
PC-3 [JPC-3]	0.738	0.78	0.843	0.749	0.269	0.824	0.957	1.03	0.519	0.787	0.854	0.886	0.762	0.498	0.909	1.16	1.12	0.988	0.435

From the supplement of paper PMC10307832
